Measurements from patent US7307095B2, “Inhibitors of cathepsin S” (IRM LLC, priority 2003, dated 2007).

Columns and labels:
Type in all cases: biochemical
Cathepsin L = Cathepsin L (Homo sapiens, UniProt P07711); assay: Cathepsin L inhibition, fluorogenic peptide substrate kinetic assay (selectivity ratio vs cathepsin S); settings: ratio of cathepsin L inhibition constant to cathepsin S inhibition constant
Protocol: (§1) The optimal substrate for cathepsin L, acetyl-histidine-lysine-phenylalanine-lysine-amino carbamoyl coumarin, was identified from screening a combinatorial library of fluorogenic peptide substrates (Harris, J. L., B. J. Backes, et al. Proc Natl Acad Sci USA 2000, 97(14), 7754-9). Kinetic measurements are performed in a total reaction volume of 30 μl in 384-well microtiter plates. […] Control reactions in the absence of inhibitor are performed in replicates of 24. The reactions are initiated by adding the substrate, acetyl-histidine-lysine-phenylalanine-lysine-amino carbamoyl coumarin, to a final concentration of 20 μM. The rate of substrate hydrolysis is measured by monitoring the increase in fluorescence at an excitation wavelength of 380 nm and an emission wavelength of 450 nm that results from cleavage of the aniline bond in the substrate by the enzyme. The apparent inhibition constants for the compounds are determined from the enzyme progress curves ([…]. Elrod, et al. Anal Biochem 2000, 286(1), 45-50) and are then used to calculate the inhibition constants for competitive inhibitors. Selectivity for cathepsin S in the presence of cathepsin isozymes was determined by the ratio of the cathepsin isozyme inhibition constant of a compound of the present invention to the cathepsin S inhibition constant of the same compound.

Cathepsin B = Cathepsin B (Homo sapiens, UniProt P07858); assay: Cathepsin B inhibition, fluorogenic peptide substrate kinetic assay (selectivity ratio vs cathepsin S); settings: ratio of cathepsin B inhibition constant to cathepsin S inhibition constant
Protocol: as §1, with “Kinetic” for “The optimal substrate for cathepsin L, acetyl-histidine-lysine-phenylalanine-lysine-amino carbamoyl coumarin, was identified from screening a combinatorial library of fluorogenic peptide substrates (Harris, J. L., B. J. Backes, et al. Proc Natl Acad Sci USA 2000, 97(14), 7754-9). Kinetic”, “substrate, acetyl-histidine-proline-valine-lysine-amino” for “substrate, acetyl-histidine-lysine-phenylalanine-lysine-amino”, “of 10” for “of 20”

Cathepsin S = Cathepsin S (Homo sapiens, UniProt P25774); assay: Cathepsin S inhibition, fluorogenic peptide substrate kinetic assay; settings: Cathepsin S inhibition constant; read-out: Ki Cat. S
Sequence of Cathepsin S (P25774 115-331, species assumed): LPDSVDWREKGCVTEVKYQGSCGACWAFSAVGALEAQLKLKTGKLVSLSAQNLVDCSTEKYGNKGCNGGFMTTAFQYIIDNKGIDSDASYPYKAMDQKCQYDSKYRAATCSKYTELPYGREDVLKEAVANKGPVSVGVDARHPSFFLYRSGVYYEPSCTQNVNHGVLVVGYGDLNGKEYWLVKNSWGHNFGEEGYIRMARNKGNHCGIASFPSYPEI
Protocol: The optimal substrate for cathepsin S, acetyl-histidine-proline-valine-lysine-amino carbamoyl coumarin, was identified from screening a combinatorial library of fluorogenic peptide substrates (Harris, J. L., B. J. Backes, et al. Proc Natl Acad Sci USA 2000, 97(14), 7754-9). Kinetic measurements are performed in a total reaction volume of 30 μl in 384-well microtiter plates. […] Control reactions in the absence of inhibitor are performed in replicates of 24. The reactions are initiated by adding the substrate, acetyl-histidine-proline-valine-lysine-amino carbamoyl coumarin, to a final concentration of 50 μM. The rate of substrate hydrolysis is measured by monitoring the increase in fluorescence at an excitation wavelength of 380 nm and an emission wavelength of 450 nm that results from cleavage of the aniline bond in the substrate by the enzyme. The apparent inhibition constants for the compounds are determined from the enzyme progress curves (Kuzmic, P., K. C. Elrod, et al. Anal Biochem 2000, 286(1), 45-50) and are then used to calculate the inhibition constants for competitive inhibitors.

Cathepsin K = biological target: T1, Cathepsin K (Homo sapiens, UniProt P43235); assay: Cathepsin K inhibition, fluorogenic peptide substrate kinetic assay (selectivity ratio vs cathepsin S); settings: ratio of cathepsin K inhibition constant to cathepsin S inhibition constant
T1 sequence (P43235 115-329): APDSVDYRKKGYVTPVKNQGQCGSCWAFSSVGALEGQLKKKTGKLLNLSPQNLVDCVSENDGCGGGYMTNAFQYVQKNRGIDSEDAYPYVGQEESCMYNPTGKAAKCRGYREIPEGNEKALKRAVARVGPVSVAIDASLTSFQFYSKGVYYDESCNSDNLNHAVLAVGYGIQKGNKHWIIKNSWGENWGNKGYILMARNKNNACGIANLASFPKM
Protocol: as §1, with “Kinetic” for “The optimal substrate for cathepsin L, acetyl-histidine-lysine-phenylalanine-lysine-amino carbamoyl coumarin, was identified from screening a combinatorial library of fluorogenic peptide substrates (Harris, J. L., B. J. Backes, et al. Proc Natl Acad Sci USA 2000, 97(14), 7754-9). Kinetic”, “substrate, acetyl-lysine-histidine-proline-lysine-amino” for “substrate, acetyl-histidine-lysine-phenylalanine-lysine-amino”, “of 40” for “of 20”

Sequence of Cathepsin L (P07711 114-333, species assumed): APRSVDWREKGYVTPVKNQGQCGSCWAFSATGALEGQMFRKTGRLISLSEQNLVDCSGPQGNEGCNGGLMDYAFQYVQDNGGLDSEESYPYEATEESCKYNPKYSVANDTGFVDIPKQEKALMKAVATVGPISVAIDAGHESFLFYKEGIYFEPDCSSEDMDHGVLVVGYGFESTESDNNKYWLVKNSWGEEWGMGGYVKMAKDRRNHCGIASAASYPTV

Row | Molecule | Selectivity for Cat. S over Cat. L (Cathepsin L) | Selectivity for Cat. S over Cat. B (Cathepsin B) | Ki (Cathepsin S) | Selectivity for Cat. S over Cat. K (Cathepsin K)
1 | 3-(S)-[2-(S)-(6-Chloro-benzooxazol-2-ylamino)-3-cyclohexyl-propionylamino]-4-(5-fluoro-2,3-dihydro-indol-1-yl)-butyric acid tert-butyl ester [Example 28] | ++ (++, >100) | ++ (++, >100) | < 1000 nM | ++ (++, >100)
2 | CC(C)(C)C[C@H](Nc1nc2ccccc2o1)C(=O)N[C@@H](CC(=O)OC(C)(C)C)CN1CCc2cc(F)ccc21 [Example 3, 3-(S)-[2-(S)-(Benzooxazol-2-ylamino)-4,4-dimethyl-pentanoylamino]-4-(5-fluoro-2,3-dihydro-indol-1-yl)-butyric acid tert-butyl ester] | ++ (++, >100) | ++ (++, >100) | < 1000 nM | ++ (++, >100)
3 | CC(C)(C)C[C@H](Nc1nc2ccccc2o1)C(=O)N[C@@H](CC(=O)O)CN1CCc2cc(F)ccc21 [Example 4, 3-(S)-[2-(S)-(Benzooxazol-2-ylamino)-4,4-dimethyl-pentanoylamino]-4-(5-fluoro-2,3-dihydro-indol-1-yl)-butyric acid] | +++ (+++, >1000) | +++ (+++, >1000) | < 100 nM | ++ (++, >100)
4 | CC(C)(C)C[C@H](Nc1nc2ccccc2o1)C(=O)N[C@@H](CCS(C)(=O)=O)CN1CCc2cc(F)ccc21 [Example 5, 2-(S)-(Benzooxazol-2-ylamino)-4,4-dimethyl-pentanoic acid [1-(S)-(5-fluoro-2,3-dihydro-indol-1-ylmethyl)-3-methanesulfonyl-propyl]-amide] | +++ (+++, >1000) | +++ (+++, >1000) | < 100 nM | + (+, >10)
5 | CC(C)(C)C[C@H](Nc1nc2ccccc2o1)C(=O)N[C@@H](COCc1ccccc1)CN1CCc2cc(F)ccc21 [Example 6, 2-(S)-(Benzooxazol-2-ylamino)-4,4-dimethyl-pentanoic acid (R)-[1-benzyloxymethyl-2-(5-fluoro-2,3-dihydro-indol-1-yl)-ethyl]-amide] | +++ (+++, >1000) | +++ (+++, >1000) | < 100 nM | + (+, >10)
6 | CC(C)(C)C[C@H](Nc1nc2ccccc2o1)C(=O)N[C@@H](CO)CN1CCc2cc(F)ccc21 [Example 7, 2-(S)-(Benzooxazol-2-ylamino)-4,4-dimethyl-pentanoic acid [2-(5-fluoro-2,3-dihydro-indol-1-yl)-1-(R)-hydroxymethyl-ethyl]-amide] | +++ (+++, >1000) | +++ (+++, >1000) | < 100 nM | + (+, >10)
7 | CC(C)(C)C[C@H](Nc1nccc2ccccc12)C(=O)NCCN1CCc2cc(F)ccc21 [Example 19, 2-(S)-(Isoquinolin-1-ylamino)-4,4-dimethyl-pentanoic acid [2-(5-fluoro-2,3-dihydro-indol-1-yl)-ethyl]-amide] | + (+, >10) | +++ (+++, >1000) | < 100 nM | 
8 | Cc1sc(N[C@@H](CC2CCCCC2)C(=O)NCCN2CCc3cc(F)ccc32)nc1-c1ccccc1 [Example 20, (S)-3-Cyclohexyl-N-[2-(5-fluoro-2,3-dihydro-indol-1-yl)-ethyl]-2-(5-methyl-4-phenyl-thiazol-2-ylamino)-propionamide] |  | + (+, >10) | < 10000 nM | + (+, >10)
9 | COC(=O)c1ccc2nc(N[C@@H](CC3CCCCC3)C(=O)N[C@@H](C)CNc3ccc(F)cc3)oc2c1 [Example 24, (S,S)2-{2-Cyclohexyl-1-[2-(4-fluoro-phenylamino)-1-methyl-ethylcarbamoyl]-ethylamino}-benzooxazole-6-carboxylic acid methyl ester] |  |  | < 100 nM | 
10 | Cc1cc(NC[C@H](C)NC(=O)[C@H](CC2CCCCC2)Nc2nc3cccc(Cl)c3o2)no1 [Example 25, 2-(S)-(7-Chloro-benzooxazol-2-ylamino)-3-cyclohexyl-N-[1-(S)-methyl-2-(5-methyl-isoxazol-3-ylamino)-ethyl]-propionamide] |  |  | < 10000 nM | 
11 | O=C(O)C[C@@H](CN1CCc2cc(F)ccc21)NC(=O)[C@H](CC1CCCCC1)Nc1nc2ccc(Cl)cc2s1 [Example 29, 3-(S)-[2-(S)-(6-Chloro-benzothiazol-2-ylamino)-3-cyclohexyl-propionylamino]-4-(5-fluoro-2,3-dihydro-indol-1-yl)-butyric acid] |  |  | < 100 nM | 
12 | C[C@@H](CN1CCc2cc(F)ccc21)NC(=O)[C@H](CC1CCCCC1)Nc1nc2ccc(Cl)cc2s1 [Example 34, 2-(S)-(6-Chloro-benzothiazol-2-ylamino)-3-cyclohexyl-N-[2-(5-fluoro-2,3-dihydro-indol-1-yl)-1-(S)-methyl-ethyl]-propionamide] |  |  | < 100 nM | 
13 | C[C@@H](CNc1ccc(OC(F)(F)F)cc1)NC(=O)[C@H](CC1CCCC1)Nc1nc2cccc(Cl)c2o1 [Example 39, 2-(S)-(7-Chloro-benzooxazol-2-ylamino)-3-cyclopentyl-N-[1-(S)-methyl-2-(4-trifluoromethoxy-phenylamino)-ethyl]-propionamide] |  |  | < 100 nM | 
14 | C[C@@H](CNc1ccc(OC(F)(F)F)cc1)NC(=O)[C@H](CC(C)(C)C)Nc1nc2cccc(Cl)c2o1 [Example 41, 2-(S)-(7-Chloro-benzooxazol-2-ylamino)-4,4-dimethyl-pentanoic acid [1-(S)-methyl-2-(4-trifluoromethoxy-phenylamino)-ethyl]-amide] |  |  | < 100 nM | 
15 | C[C@@H](CNc1ccc(OC(F)(F)F)cc1)NC(=O)[C@H](CC1CC1)Nc1nc2cccc(Cl)c2o1 [Example 43, 2-(S)-(7-Chloro-benzooxazol-2-ylamino)-3-cyclopropyl-N-[1-(S)-methyl-2-(4-trifluoromethoxy-phenylamino)-ethyl]-propionamide] |  |  | < 100 nM | 
